Reference: patent US20250000801A1, “DAROLUTAMIDE PHARMACEUTICAL COMPOSITION, PREPARATION METHOD THEREFOR AND USE THEREOF” (Sinotherapeutics Inc., priority 2021, published 2025)
In brackets after ≈: the same amount, converted by molar mass. Where two headings read alike, the source gives them in different places.

What was measured:
[1] = physchem; conditions: 37.2 °C, pH 6.8, aqueous buffer, thermodynamic from solid
Description: About 200 mg of sample is weighted into a 50 ml shaking flask and then 50 ml of medium with pH of 6.8 is added. The shaking flask is mixed well and placed in a shaker. The shaker temperature is set as 37.2° C. and the rotation speed is set as 50 rpm. The sample is taken at 4 hours and 0.45 μM filter membrane is used for filtration to collect filtrate. High-performance liquid chromatography is used for determination with wavelength at 286 nm.

[2] = Determination of dissolution, USP II method (paddle method); type: physicochemical; conditions: phosphate buffer pH 6.8, 1000 ml, 75 rpm
Description: In the following examples, the dissolution of the formulation is determined using the USP II method (paddle method) in the US Pharmacopoeia, with specific parameters as follows.
According to the above procedures, the dissolutions of Darolutamide in phosphate buffer, pH 6.8 were determined and the results were shown in Table 9.

[3] = cited from earlier work
[4] = tested on: non-metastatic castration-resistant prostate cancer (nmCRPC); conditions: Phase III, cited from earlier work
[5] = cited from earlier work; remark: listed apart in the source
[6] = single dose pharmacokinetic study

## CC(O)c1cc(C(=O)N[C@@H](C)Cn2ccc(-c3ccc(C#N)c(Cl)c3)n2)n[nH]1 (stereo partly drawn) [Darolutamide, N-[(1S)-2-[3-(3-chloro-4-cyanophenyl)-1H-pyrazol-1-yl]-1-methylethyl]-5-(1-hydroxyethyl)-1H-pyrazole-3-carboxamide]
[1]
  solubility at 4 h: 24.9 µg/mL (≈ 62.4 µM)
[2]; 5 min
  Dissolution: 7%
[2]; 15 min
  Dissolution: 10%
[2]; 30 min
  Dissolution: 9%
[2]; 45 min
  Dissolution: 12%
[3]; 300 mg, fasting state
  bioavailability: about 30%
[3]; administration dosage of 300 mg
  coefficient of variation (CV %) of AUC(0-4): 69.6%
[3]; administration dosage of 600 mg
  coefficient of variation (CV %) of AUC(0-4): 41.4%
[3]; after administration of 300 mg or 600 mg
  increase of AUC(0-4) in feeding state: 2.5 fold
[3]; single dose administration of 300 mg
  increase of bioavailability in feeding state: 2.5 fold
[3]; single dose administration of 600 mg
  increase of bioavailability in feeding state: 2.8 fold
[3]; [6]
  end half-life: 10 to 15 h
  median Tmax: 3 to 6 h
[4]; Darolutamide combined with ADT vs placebo combined with ADT
  reduction of the risk of disease metastasis or death: 59%
[4]; Darolutamide combined with ADT
  median metastasis free survival (MFS): 40.4 months
[5]; low solubility and high permeability
  BCS classification: BCS Class II
[5]; pH 1-6.8
  solubility in aqueous media: 14 to 23 µg/mL
